Experimental data from US20060269924A1, “Modulation of telomere-initiated cell signaling” (TRUSTEES OF BOSTON UNIVERSITY, priority 2003, published 2006).
{P} = phosphate

Columns and labels:
[1] = test system: S91 mouse melanoma cells; assay: Melanin content of S91 melanoma cells; format: cell-based; settings: 40 μM, 6 days
Experimental: Cultures of S91 mouse melanoma cells (100,000 cells/38 cm^2) were treated with 100 μM pTpT or phosphorothioate pTpT (pTspT) (FIG. 4) or 40 μM 11mer-1 or the phosphorothioate 11mer-1 (11mer-1-S) (FIG. 5) for 6 days and were then collected, counted and assayed for melanin content.
Duplicate cultures of S91 cells (100,000 cells/39 cm^2) were either sham-irradiated or irradiated with 5 mJ/cm^2 solar-simulated light from a 1 kW xenon arc solar-simulator (XMN 1000-21, Optical Radiation, Azuza, Calif.) metered at 285±5 nm using a research radiometer (model IL1700A, International Light, Newburyport, Mass.). Two sham-irradiated plates were then supplemented with 100 μM pTspT and two irradiated cultures were similarly treated with pTspT. After one week, cells were collected, counted and analyzed for melanin content by dissolving the cell pellets in 1 N NaOH and measuring the optical density at 475 nm. […] However, this response was blocked by the addition of pTspT (FIG. 6). In addition, the constitutive pigmentation of these cells was reduced by the pTspT in the sham-irradiated cultures, similar to the data presented in FIGS. 4 and 5.

[2] = test system: R2F fibroblasts; assay: SA-β-Gal staining, R2F fibroblasts; format: cell-based, human; settings: 40 μM, 1 week
Experimental: (§1) FIG. 12a: Immunoblot analysis of p53DD and cdk4^R24C expression. Cells were collected for protein analysis by western blot using 30 μg total protein and probed for total p53 and cdk4. Lanes 1, 2, 3 and 4 contain protein samples from R2F, R2F (p53DD), R2F (cdk4^R24C) and R2F (p53DD/cdk4^R24C) fibroblasts, respective. β-actin was used as a loading control. FIG. 12b: Contribution of p53 and pRb pathways to T-oligo-induced SA-β-Gal activity. R2F fibroblasts and derived transductants were treated with diluent or 40 μM T-oligo for one week and then assayed for SA-β-Gal activity. FIG. 12c: Quantitative analysis of SA-β-Gal positive cells. Cells expressing SA-β-Gal activity were counted and presented as percentage of total cells in the cultures. Averages and standard deviations were calculated from 3 representative fields from each of 3 independent experiments.
Cells were treated once with diluent alone, 40 μM T-oligo or 40 μM complementary oligo for 1 week without re-feeding. Cells were then fixed for 3-5 minutes in 2% formaldehyde/0.2% glutaraldehyde and incubated at 37° C. […]
(§2) Cells were treated with either diluent or 40 μM T-oligo for 1 week and then assessed for SA-β-Gal activity. […]

[3] = test system: p53DD R2F fibroblasts; assay: SA-β-Gal staining, p53DD R2F fibroblasts; format: cell-based, human; settings: 40 μM, 1 week
Experimental: as §1
(§3) R2F newborn dermal fibroblasts and derived p53DD, […] and p53DD/cdk4^R24C transductants (a generous gift from Dr. James G. Rheinwald of Harvard Medical School) lack a functional p53 pathway, pRb pathway, and both pathways respectively.
(§4) Cells were treated once with diluent alone, 40 μM T-oligo or 40 μM complementary oligo for 1 week without re-feeding. […]
as §2

[4] = test system: cdk4^R24C R2F fibroblasts; assay: SA-β-Gal staining, cdk4^R24C R2F fibroblasts; format: cell-based, human; settings: 40 μM, 1 week
Experimental: as §1, §3, §4, §2

[5] = test system: R2F (p53DD/cdk4^R24C) fibroblasts; assay: SA-β-Gal staining, p53DD/cdk4^R24C R2F fibroblasts; format: cell-based, human; settings: R2F fibroblasts expressing both p53DD and cdk4^R24C, 40 μM, 1 week
Experimental: as §1, §3, §4, §2

[6] = test system: p95/Nbs1 phosphorylation; assay: Western blot for phospho-p95/Nbs1 in Saos-2 cells; format: cell-based; settings: 40 μM
Experimental: FIG. 18a: FACS profiles from one representative experiment of three with the percentage and standard deviations of cells in each phase of the cell cycle was calculated from triplicate cultures of each condition. FIG. 18b: Western blots with an antibody specific for phospho-p95/Nbs1. Lanes 1, 2 and 3 contained protein from cells treated with diluent, 11mer-1 or 11mer-2, respectively. Control cells (3 hours) were irradiated with 10 Gy of IR (+), or were sham irradiated (−).
Saos-2 cells are an osteosarcoma cell line that is reportedly telomerase negative and maintain telomeres by the ALT pathway. Saos-2 cell lines were treated with either diluent or 40 μM of the indicated oligonucleotide and cells were collected after 48 hours for FACS analysis. […] The results that the effect of the T-oligo in the telomerase negative cells is identical to the response in telomerase positive malignant cell lines.

[7] = test system: p95 phosphorylated at serine 343; assay: p95 serine 343 phosphorylation after tankyrase siRNA, western blotting and densitometry; format: cell-based, human; settings: 24 hours
Experimental: Paired cultures of human fibroblasts were treated once with tankyrase siRNA, with a non-specific siRNA (control) or were mock transfected as a second control. […] After an additional 24 hours, cells were collected and processed for western blotting using an antibody specific for p95 phosphorylated at serine 343, indicating p95 modification by activated ATM kinase. The film was then subjected to densitometry and the diluent control for each group of cells was set at 1.0 in arbitrary units (FIG. 19). As expected, in cells with normal tankyrase levels the T-oligo treated cells had twice the amount of phosphorylated p95, while the control oligo-treated or diluent-treated cells had only a 30-40% increase.

In the case of “pGTTAGGGTTAG (DNA, 5' {P}, backbone not given here; listed as Homo sapiens) [Oligonucleotide 11mer-1]”, the “melanogenesis (melanin content)” value [1] is reported as “stimulated melanogenesis”, the SA-β-Gal positive cells [2] is reported as 65±7% and the SA-β-Gal positive cells [3] is reported as 45±4%. For the same substance, the SA-β-Gal positive cells [4] was 60±5%, the SA-β-Gal positive cells [5] was 7±1% and the “phosphorylation of p95/Nbs1” value [6] was “induced phosphorylation”. For the same substance, the “amount of phosphorylated p95 relative to diluent control” value ([7]; human fibroblasts with normal tankyrase levels) was “twice” and the “level of p95 phosphorylation (densitometry, diluent control set at 1.0)” value ([7]; tankyrase knockdown group (tankyrase siRNA)) was 1.1 arbitrary units.
